From US12331026B2 (NiKang Therapeutics, Inc., priority 2022, dated 2025)

These molecules were tested against T1, CDK2 (Homo sapiens, UniProt P24941) (assay: Phospho-RB measurement in OVCAR3 cells (HTRF phospho-RB S807/811)). Conditions: phosphorylation of RB protein at S807/811, HTRF, 24 h compound treatment, 0.3 to 10,000 nM, read-out: pRb (uM).
T1 construct: endogenous in cells; host or cells: OVCAR3 cells
Format: cell-based
Method: The ability of compounds of Formula (I) to inhibit CDK2 was determined in OVCAR3 cells. Phosphorylation of RB protein at S807/811 were measured using HTRF phospho-RB cellular kits (Cat #64RBS807PEG) from Cisbio.
On Day 1, OVCAR3 cells were seeded into 96-well tissue-culture treated plates at 20,000 cells/well in 200 μL and incubated overnight at 37° C. in CO2 atmosphere. On Day 2, the cells were treated with test compounds at concentrations from 0.3 to 10,000 nM using HP D300 digital dispenser. Twenty-four hours after compound treatment, cell culture media was removed by flicking the plate and tapping the plate against clean paper towel. Immediately 30 μL 1× lysis buffer was supplemented from the kit and the plate was incubated at room temperature on shaker for 30 min. After homogenization by pipetting up and down, 8 μL cell lysate from 96-well cell culture plate was transferred to 384-well small volume white detection plate. 2 μL premixed detection solution was added and the plate was covered with sealer. To prepare the detection solution, d2 conjugated-phospho-RB antibody and Eu-cryptate conjugated phosphor-RB antibody were diluted into detection buffer following manufacturer's instruction.
Detection plates were incubated for 4 h at room temperature and read on ClarioStar (BMG Labtech) in TR-FRET mode ([…]). The TR-FRET ratio (665 nM1/620 nM) was plotted against the compound concentration and normalized to DMSO controls. Half maximal inhibition concentration (IC50) values are calculated with a four-parameter logistic fit using GraphPad Prism (version 8; La Jolla, CA).

Compound | IC50
O=S1(=O)CCC(N2CC3CCC(C2)N3c2nc(-c3cccc(NS(=O)(=O)c4c(F)cccc4F)c3F)c(-c3ccnc(NC4CC5(C4)CS(=O)(=O)C5)n3)s2)CC1 [Example 38, N-(3-(5-(2-((2,2-dioxido-2-thiaspiro[3.3]heptan-6-yl)amino)-pyrimidin-4-yl)-2-(3-(1,1-dioxidotetrahydro-2H-thiopyran-4-yl)-3,8-diazabicyclo[3.2.1]octan-8-yl)thiazol-4-yl)-2-fluorophenyl)-2,6-difluorobenzenesulfonamide] | 8.12 µM
O=S1(=O)C[C@@H]2[C@H](C1)[C@H]2Nc1nccc(-c2sc(C3(C(F)F)CC3)nc2-c2cccc(NS(=O)(=O)c3c(F)cccc3C(F)(F)F)c2F)n1 [Example 72, N-(3-(2-(1-(difluoromethyl)cyclopropyl)-5-(2-(((1R,5S,6r)-3,3-dioxido-3-thiabicyclo[3.1.0]hexan-6-yl)amino)pyrimidin-4-yl)thiazol-4-yl)-2-fluorophenyl)-2-fluoro-6-(trifluoromethyl)benzenesulfonamide] | 0.061 µM
O=C1CC2CCC(C1)N2c1nc(-c2cccc(NS(=O)(=O)c3c(F)cccc3F)c2F)c(-c2ccnc(NC3CC4(C3)CS(=O)(=O)C4)n2)s1 [Example 17, N-(3-(5-(2-((2,2-dioxido-2-thiaspiro[3.3]heptan-6-yl)amino)pyrimidin-4-yl)-2-(3-oxo-8-azabicyclo[3.2.1]octan-8-yl)thiazol-4-yl)-2-fluorophenyl)-2,6-difluorobenzenesulfonamide] | 0.48 µM
O=S1(=O)CC2(CC(Nc3nccc(-c4sc(N5C6CCC5CN(C5CC(F)(F)C5)C6)nc4-c4cccc(NS(=O)(=O)c5c(F)cccc5C(F)F)c4F)n3)C2)C1 [Example 50, N-(3-(2-(3-(3,3-difluorocyclobutyl)-3,8-diazabicyclo[3.2.1]octan-8-yl)-5-(2-((2,2-dioxido-2-thiaspiro[3.3]heptan-6-yl)amino)pyrimidin-4-yl)thiazol-4-yl)-2-fluorophenyl)-2-(difluoromethyl)-6-fluorobenzenesulfonamide] | 0.19 µM
C[C@@H]1CN(C2CC(F)(F)C2)C[C@@H](C)N1c1nc(-c2cccc(NS(=O)(=O)c3c(F)cccc3F)c2F)c(-c2ccnc(NC3CC4(C3)CS(=O)(=O)C4)n2)s1 [Example 61, N-(3-(2-((2R,6R)-4-(3,3-difluorocyclobutyl)-2,6-dimethylpiperazin-1-yl)-5-(2-((2,2-dioxido-2-thiaspiro[3.3]heptan-6-yl)amino)-pyrimidin-4-yl)thiazol-4-yl)-2-fluorophenyl)-2,6-difluoro-benzenesulfonamide] | 0.34 µM
O=S1(=O)CC2(CC(Nc3nccc(-c4sc(C56CC(C5)C6)nc4-c4cccc(NS(=O)(=O)c5c(F)cccc5F)c4F)n3)C2)C1 [Example 3, N-(3-(2-(bicyclo[1.1.1]pentan-1-yl)-5-(2-((2,2-dioxido-2-thiaspiro[3.3]heptan-6-yl)amino)pyrimidin-4-yl)thiazol-4-yl)-2-fluorophenyl)-2,6-difluorobenzenesulfonamide] | 0.12 µM
O=S1(=O)CC2(CC(Nc3nccc(-c4sc(N5C6CCC5CN(c5ccccn5)C6)nc4-c4cccc(NS(=O)(=O)c5c(F)cccc5F)c4F)n3)C2)C1 [Example 43, N-(3-(5-(2-((2,2-dioxido-2-thiaspiro[3.3]heptan-6-yl)amino)-pyrimidin-4-yl)-2-(3-(pyridin-2-yl)-3,8-diazabicyclo[3.2.1]octan-8-yl)thiazol-4-yl)-2-fluorophenyl)-2,6-difluorobenzenesulfonamide] | 0.46 µM
CS(=O)(=O)[C@H]1CC[C@H](Nc2nccc(-c3sc(C45CC(C(F)F)(C4)C5)nc3-c3cccc(NS(=O)(=O)c4c(F)cccc4C(F)(F)F)c3F)n2)CC1 [Example 134, N-(3-(2-(3-(difluoromethyl)bicyclo[1.1.1]pentan-1-yl)-5-(2-(((1r,4r)-4-(methylsulfonyl)cyclohexyl)amino)pyrimidin-4-yl)thiazol-4-yl)-2-fluorophenyl)-2-fluoro-6-(trifluoromethyl)benzenesulfonamide] | 0.08 µM
CN1CCC(C)(c2nc(-c3cccc(NS(=O)(=O)c4c(F)cccc4F)c3F)c(-c3ccnc(NC4CC5(C4)CS(=O)(=O)C5)n3)s2)CC1 [Example 15, N-(3-(2-(1,4-dimethylpiperidin-4-yl)-5-(2-((2,2-dioxido-2-thiaspiro[3.3]heptan-6-yl)amino)pyrimidin-4-yl)thiazol-4-yl)-2-fluorophenyl)-2,6-difluorobenzenesulfonamide] | 3.2 µM
O=S1(=O)C[C@@H]2[C@H](C1)[C@H]2Nc1nccc(-c2sc(C3(C(F)F)CC3)nc2-c2cccc(NS(=O)(=O)c3c(F)cccc3F)c2F)n1 [Example 98, N-(3-(2-(1-(difluoromethyl)cyclopropyl)-5-(2-(((1R,5S,6r)-3,3-dioxido-3-thiabicyclo[3.1.0]hexan-6-yl)amino)pyrimidin-4-yl)thiazol-4-yl)-2-fluorophenyl)-2,6-difluorobenzenesulfonamide] | 0.13 µM
O=S1(=O)C[C@@H]2[C@H](C1)[C@H]2Nc1nccc(-c2sc(N3C4CCC3CN(C3CC(F)(F)C3)C4)nc2-c2cccc(NS(=O)(=O)c3c(F)cccc3F)c2F)n1 [Example 107, N-(3-(2-(3-(3,3-difluorocyclobutyl)-3,8-diazabicyclo[3.2.1]octan-8-yl)-5-(2-(((1R,5S,6r)-3,3-dioxido-3-thiabicyclo[3.1.0]hexan-6-yl)amino)pyrimidin-4-yl)thiazol-4-yl)-2-fluorophenyl)-2,6-difluorobenzenesulfonamide] | 0.15 µM
O=S1(=O)C[C@@H]2[C@H](C1)[C@H]2Nc1nccc(-c2sc(N3C4CCC3CN(C3CC3)C4)nc2-c2cccc(NS(=O)(=O)c3c(F)cccc3C(F)(F)F)c2F)n1 [Example 130, N-(3-(2-(3-cyclopropyl-3,8-diazabicyclo[3.2.1]octan-8-yl)-5-(2-(((1R,5S,6r)-3,3-dioxido-3-thiabicyclo[3.1.0]hexan-6-yl)amino)-pyrimidin-4-yl)thiazol-4-yl)-2-fluorophenyl)-2-fluoro-6-(trifluoromethyl)benzenesulfonamide] | 0.45 µM
COc1cccc(F)c1S(=O)(=O)Nc1cccc(-c2nc(N3C4CCC3CN(C)C4)sc2-c2ccnc(NC3CC4(C3)CS(=O)(=O)C4)n2)c1F [Example 57, N-(3-(5-(2-((2,2-dioxido-2-thiaspiro[3.3]heptan-6-yl)amino)-pyrimidin-4-yl)-2-(3-methyl-3,8-diazabicyclo[3.2.1]octan-8-yl)thiazol-4-yl)-2-fluorophenyl)-2-fluoro-6-methoxybenzenesulfonamide] | 0.6 µM
O=S1(=O)C[C@@H]2[C@H](C1)[C@H]2Nc1nccc(-c2sc(C34CC(C3)C4)nc2-c2cccc(NS(=O)(=O)c3c(F)cccc3OC(F)F)c2F)n1 [Example 113, N-(3-(2-(bicyclo[1.1.1]pentan-1-yl)-5-(2-(((1R,5S,6r)-3,3-dioxido-3-thiabicyclo[3.1.0]hexan-6-yl)amino)pyrimidin-4-yl)thiazol-4-yl)-2-fluorophenyl)-2-(difluoromethoxy)-6-fluorobenzenesulfonamide] | 0.07 µM
CC1(C#N)CC2CCC(C1)N2c1nc(-c2cccc(NS(=O)(=O)c3c(F)cccc3F)c2F)c(-c2ccnc(NC3CC4(C3)CS(=O)(=O)C4)n2)s1 (stereo not drawn) [Example 33, N-(3-(2-(3-cyano-3-methyl-8-azabicyclo[3.2.1]octan-8-yl)-5-(2-((2,2-dioxido-2-thiaspiro[3.3]heptan-6-yl)amino)pyrimidin-4-yl)thiazol-4-yl)-2-fluorophenyl)-2,6-difluorobenzenesulfonamide] | 0.1 µM
